Laboratory results reported in paper PMC10845954, “Novel antimicrobial peptides identified in legume plant, Medicago truncatula” (Microbiology Spectrum, 2024).
In brackets after ≈: the same amount, converted by molar mass. Where a SMILES comes first, the peptide text is derived from it. Where no end group is shown, it is not given here.

Columns and labels:
human erythrocytes = test: Human red blood cell hemolysis; format: cell-based; conditions: 100 µM
Method: With a few minor modifications, red blood cell hemolysis was carried out as previously described ([21]). On a 96-well microtiter plate, 100, 10, 1, and 0 µM NCRs, NCR094 and NCR992 were placed in each well, and […] of 1× PBS was carried out across the plate. Each well received an equivalent volume of 1% human erythrocytes that had been re-suspended in PBS after being washed once with PBS (5 minutes by centrifugation at 3,000 × g to prevent non-specific red blood cell lysis). The plate was then incubated at 37°C for 24 hrs.
As negative and positive controls for hemolysis, respectively, PBS alone and 1% sodium hypochlorite alone were utilized. At a wavelength of 405 nm, hemoglobin release was measured, and the hemolytic capability was expressed as a percentage of the sodium hypochlorite control (100%). The normalization equation normalization = NCR average – negative control average was used to compute the hemolysis percentage. Hemolysis percentage = normalization of NCRs ÷ average of positive control × 100. The hemolysis of 20% and above was considered as toxic to human red blood cells as reported previously ([22]). The mean values and standard deviation (SD) for each assay were carried out in triplicate and repeated three times.
Fig 6 The hemolysis % of the NCRs (NCR094 and NCR992) toward human red blood cells. One percent human red blood cells were treated with 100 µM of the NCRs. (A) NCR094 WT, NCR094.1, NCR094.2, and NCR094.3. (B) NCR992 WT, NCR992.1, NCR992.2, and NCR992 for 16 hrs without shaking. One hundred […] of supernatants was transferred into a new 96-well plate, and the absorbance was measured using a plate reader at 405 nm wavelength. Polymyxin B treatment was […] control. The results were represented as average of the % hemolysis and standard deviations from three independent experiments.
Figure S.1. Dose-dependent hemolysis assay for the NCR collection used in this study.
1% Human red blood cells were treated with 10-fold concentration (100, 10, 1, 0 μM) of NCRs A) (NCR094.1, B)
NCR992 WT) C) NCR992.1, D) NCR992.2, and E) NCR992.1for 18 hrs without shaking. […] of supernatants
were transferred into new 96-well plate and the absorbance was measured using a plate reader at 405 nm wavelength.
The results were represented as average of the % hemolysis and error bars were ± SD values from three independent
(also on this page, place not known: 10100 % of Toxicity 10100 80% of Toxicity 10100 % of Toxicity 10100 % of Toxicity 10100 S- % of Toxicity A)

K. pneumoniae ATCC700603 [1] = format: cell-based, Klebsiella pneumoniae
Method: (§1) Bacterial strains used in the experiment were MRSA ATCC29213 and K. pneumoniae ATCC700603. Three NCRs, NCR094 (GenBank# KEH42094.1), NCR992 (GenBank# KEH8992.1), and NCR888 (GenBank# KEH37888.1), and designed derivatives were supplied from GenScript (United States). MRSA and K. pneumoniae were streaked for colonies on blood agar plates and incubated at 37°C for 18–24 hrs. MRSA and K. pneumoniae’s colonies were cultured in cation-adjusted Mueller–Hinton broth (MHB) media and incubated at 37°C for 18–24 hrs. For the in vitro killing assay and the ex vivo human killing assay, MRSA and K. pneumoniae were cultured on an MHB agar plate for 18 hrs at 37°C.
(§2) A broth microdilution assay in cation-adjusted MHB (MilliporeSigma, United States) was used to determine the minimum inhibitory concentrations (MICs) and the mimium bactericidal concentration (MBCs) of our NCR collection’s NCR094, NCR888, and NCR992. After a final bacterial inoculum of 5 × 10^5 CFU/mL was set and incubated for an overnight period at 37°C, the MIC of the NCRs that prevented MRSA or K. pneumoniae from growing visibly was measured. The MBCs was measured by subculturing the broths used in MIC determination into fresh NCR-free agar plates. The MICs of the NCRs were measured after the NCRs were added to the MRSA or K. pneumoniae cultures and dissolved in sterile distilled water.
The bacterial cultures of MRSA and K. pneumoniae were treated with different concentrations of the synthetic NCRs (MRSA: 25, 12.5, 6.25, 3.125, and 0 µM; K. pneumoniae: 50, 25, 12.5, 6.25, 3.125, and 0 µM). […] Thus, NCR888 in the wild type and the different variants were not included in the downstream assays.

MRSA ATCC29213 = test: Broth microdilution MIC/MBC; format: cell-based, Staphylococcus aureus; conditions: tested 25, 12.5, 6.25, 3.125 µM; post-18 hrs of treatment
Method: as §1
as §2, with “water. […]” for “water.”

K. pneumoniae ATCC700603 [2] = format: cell-based, Klebsiella pneumoniae; conditions: human whole blood, 12.5 µM, 18 hrs 37°C; mean of three independent experiments
Method: The whole killing assay was performed as previously described ([19]). Briefly, freshly drawn peripheral venous whole blood was collected on a heparin tube from healthy adult volunteers. To do this, unchallenged blood with and without NCRs at the MIC (blood from the same individuals) was used. Whole blood was then challenged with MRSA or K. pneumoniae ex vivo and incubated for an overnight period at 37°C. Tenfold serial dilution was plated on MH agar media post-18 hrs treatment ([19]). Killing% was calculated as follows: killing% = CFUs for no treatment − CFUs for NCR treatment ÷ […] × 100. Three independent experiments were performed.
The killing effect of NCRs on MRSA and K. pneumoniae was investigated using an ex vivo whole blood killing assay as a preliminary screening method to discover peptides with potential immune-boosting activity. […] The bactericidal ability (killing%) of human whole blood was monitored by counting the CFUs post-18 hrs, and the killing% was calculated.
Fig 2 Whole blood killing assay of NCR094 in the wild type and the derivatives, ex vivo antimicrobial assay. […] CFUs were calculated to estimate the killing percentage. […]
Fig 4 Whole blood killing assay of NCR992 in the wild type and the derivatives, the ex vivo antimicrobial assay. […] CFUs were calculated to estimate the killing percentage. […]

Compound | hemolysis % (human erythrocytes) [%] | also measured
CC[C@H](C)[C@H](N)C(=O)N[C@@H](CO)C(=O)N[C@@H](Cc1ccc(O)cc1)C(=O)N[C@@H](CCCCN)C(=O)N[C@@H](CS)C(=O)N[C@@H](CCC(N)=O)C(=O)N[C@@H](CS)C(=O)N[C@@H](Cc1c[nH]cn1)C(=O)N[C@@H](CCC(=O)O)C(=O)N[C@@H](C)C(=O)N[C@@H](Cc1ccc(O)cc1)C(=O)O [NCR992.2] (H-ISYKCQCHEAY-OH; N-terminus and C-terminus assumed) | 66.77 | 
MSEFGMIRRSISYKSQSHEAY [NCR992.3] | 93.34 | 
MCWPSFKPRCSNGWCVCDKIMP [NCR888, wild-type nodule-specific cysteine-rich peptide of Medicago truncatula, 22 residues, chemically synthesized] |  | inhibition or killing of K. pneumoniae (in words) (K. pneumoniae ATCC700603 [1]; tested 50, 25, 12.5, 6.25, 3.125 µM, post-18 hrs of treatment): did not inhibit or kill; inhibition or killing of MRSA (in words) (MRSA ATCC29213): did not inhibit or kill
CC[C@H](C)[C@H](NC(=O)[C@H](CCCCN)NC(=O)[C@@H](NC(=O)[C@H](C)NC(=O)[C@H](CCCNC(=N)N)NC(=O)[C@H](CS)NC(=O)[C@H](Cc1ccc(O)cc1)NC(=O)[C@H](CC(N)=O)NC(=O)CNC(=O)[C@@H](NC(=O)[C@H](CS)NC(=O)[C@H](CCCNC(=N)N)NC(=O)[C@H](Cc1ccc(O)cc1)NC(=O)[C@@H](NC(=O)[C@@H](NC(=O)[C@@H](N)CCC(N)=O)C(C)C)C(C)C)C(C)C)C(C)C)C(=O)N[C@@H](CCCNC(=N)N)C(=O)N[C@@H](CCCNC(=N)N)C(=O)N[C@@H](Cc1c[nH]c2ccccc12)C(=O)N[C@@H](CC(N)=O)C(=O)N[C@@H](CC(C)C)C(=O)NCC(=O)O [NCR094.2] (H-QVVYRCVGNYCRAVKIRRWNLG-OH; N-terminus and C-terminus assumed) | 8.99 | 
YLKSKTVHDSPKSQVVYRSVGNYCRAVKIRRWNLG [NCR094.3] | 0.69 | Killing% of K. pneumoniae ex vivo (K. pneumoniae ATCC700603 [2]): relatively similar killing activity
CC[C@H](C)[C@H](NC(=O)[C@H](CCCCN)NC(=O)[C@@H](NC(=O)[C@H](C)NC(=O)[C@H](CCCNC(=N)N)NC(=O)[C@H](CS)NC(=O)[C@H](Cc1ccc(O)cc1)NC(=O)[C@H](CC(N)=O)NC(=O)CNC(=O)[C@@H](NC(=O)[C@H](CS)NC(=O)[C@H](CCCNC(=N)N)NC(=O)[C@H](Cc1ccc(O)cc1)NC(=O)[C@@H](NC(=O)[C@@H](NC(=O)[C@H](CCC(N)=O)NC(=O)[C@H](CO)NC(=O)[C@H](CCCCN)NC(=O)[C@@H]1CCCN1C(=O)[C@H](CS)NC(=O)[C@H](CC(=O)O)NC(=O)[C@H](Cc1c[nH]cn1)NC(=O)[C@@H](NC(=O)[C@@H](NC(=O)[C@H](CCCCN)NC(=O)[C@H](CS)NC(=O)[C@H](CCCCN)NC(=O)[C@H](CC(C)C)NC(=O)[C@@H](N)Cc1ccc(O)cc1)[C@@H](C)O)C(C)C)C(C)C)C(C)C)C(C)C)C(C)C)C(=O)N[C@@H](CCCNC(=N)N)C(=O)N[C@@H](CCCNC(=N)N)C(=O)N[C@@H](Cc1c[nH]c2ccccc12)C(=O)N[C@@H](CC(N)=O)C(=O)N[C@@H](CC(C)C)C(=O)NCC(=O)O [NCR094] (H-YLKCKTVHDCPKSQVVYRCVGNYCRAVKIRRWNLG-OH; N-terminus and C-terminus assumed) | 15.41 | minimum inhibitory concentration (MIC) (K. pneumoniae ATCC700603 [1]; ATCC700603): 12.5 µM (≈ 52 µg/mL); minimum bactericidal / killing concentration (MBC), complete killing (K. pneumoniae ATCC700603 [1]; ATCC700603, 18 h): 25 µM
CC[C@H](C)[C@H](NC(=O)[C@H](CCSC)NC(=O)CNC(=O)[C@H](Cc1ccccc1)NC(=O)[C@H](CCC(=O)O)NC(=O)[C@H](CS)NC(=O)[C@@H](N)CCSC)C(=O)N[C@@H](CCCNC(=N)N)C(=O)N[C@@H](CCCNC(=N)N)C(=O)N[C@@H](CS)C(=O)O [NCR992.1] (H-MCEFGMIRRC-OH; N-terminus and C-terminus assumed) | 63.67 | 
CC(C)C[C@H](NC(=O)[C@@H](N)Cc1ccc(O)cc1)C(=O)N[C@@H](CCCCN)C(=O)N[C@@H](CS)C(=O)N[C@@H](CCCCN)C(=O)N[C@H](C(=O)N[C@H](C(=O)N[C@@H](Cc1c[nH]cn1)C(=O)N[C@@H](CC(=O)O)C(=O)N[C@@H](CS)C(=O)N1CCC[C@H]1C(=O)N[C@@H](CCCCN)C(=O)O)C(C)C)[C@@H](C)O [NCR094.1] (H-YLKCKTVHDCPK-OH; N-terminus and C-terminus assumed) | 49.38 | 
